{"source": "patent US11091428B2", "about": "(HAPLOGEN GMBH, priority 2016, dated 2021)"}
{"biological_target": "T1, PLA2G16 (Homo sapiens, UniProt P53816)", "T1 construct": "Hexa-His (N); made in house; host or cells: E. coli BL21(DE3)", "T1 sequence (P53816 1-162)": "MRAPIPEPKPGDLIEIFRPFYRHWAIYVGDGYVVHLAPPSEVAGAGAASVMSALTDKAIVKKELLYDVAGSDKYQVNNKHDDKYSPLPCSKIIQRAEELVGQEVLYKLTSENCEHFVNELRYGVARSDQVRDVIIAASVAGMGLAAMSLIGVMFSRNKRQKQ", "test": "Enzyme activity assay for PLA2G16 (Red/Green BODIPY PC-A2 fluorescence)", "assay_type": "biochemical", "details": "His-tagged PLA2G16, 4 min pre-incubation, 2 nM to 50 μM; read-out: IC50 values of the compounds determined in the enzyme activity assay for PLA2G16", "description": "A cDNA for PLA2G16(NM_007069) was custom-synthesized by Genscript (Piscataway, USA) and inserted into a pET-based bacterial expression vector [Moffatt, B. A. and Studier, F. W. (1986) J. Mol. Biol. 189, 113-130; Rosenberg, A. H., Lade, B. N., Chui, D., Lin, S., Dunn, J. J., and Studier, F. W. (1987) Gene 56, 125-135], enabling the expression of N-terminally Hexa-His-tagged PLA2G16. E. coli BL21(DE3) (Agilent) were transformed with pET-His-PLA2G16according to the manufacturer's instructions and plated on Carbenicillin-containing agar plates (final concentration: 100 μg/mL). A single clone was in occulated in 100 mL LB medium supplemented with 100 μg/mL Carbenicillin and the in occulated culture was grown at 37° C. overnight in a rotary shaker. On the next day, the bacterial culture was diluted in LB medium supplemented with 100 μg/mL Carbenicillin (30 mL overnight culture in 800 mL total culture volume). Bacteria were grown at 37° C. until the OD600 reached 0.6. Gene expression was induced by addition of 1 mM isopropyl-β-D-thiogalactopyranosid (IPTG) for 2 h at 18° C. Subsequently, bacteria were harvested by centrifugation (15 min; 10,000×g; 4° C.) and frozen at −80° C. The bacterial pellet was resuspended in Buffer A (50 mM Tris/HCl pH 7.5, 500 mM NaCl, 5% glycerol, 5 mM β-Mercaptoethanol and 1 mM PMSF) and lysed by addition of 1 mg/mL lysozyme (Sigma Aldrich) and 100 μg/mL DNasel-(Roche). The sample was incubated at 30° C. for 30 min to allow lysis to occur. Then, the lysate was cleared by centrifugation (15,000×g, 15 min, 4° C.) and incubated with 1.5 mL Ni-NTA agarose suspension (Qiagen) for 60 min at 4° C. The Ni-NTA agarose was washed with 10 mL Buffer A. Bound protein was eluted by applying a manual gradient of Buffer A supplemented with increasing concentrations of imidazole (Sigma Aldrich; 25/50/75/100/250 mM). Purified fractions were analyzed by SDS-PAGE followed by Coomassie staining to assess the purity.\nActivity of the protein was assessed as follows: Red/Green BODIPY® PC-A2 (Invitrogen, 1 mM in DMSO) was mixed with equal volumes of 1,2-Dioleoyl-sn-glycero-3-phosphocholine (DOPC; Sigma Aldrich, 10 mM in Ethanol) and 1,2-Dioleoyl-sn-glycero-3-phospho-rac-(1-glycerol) (DOPG; Sigma Aldrich, 10 mM in Ethanol) and 0.5 volumes of Cholesterol (CHOL; Sigma Aldrich, 10 mM in Ethanol) and vortexed for 5 s. The mixture (Red/Green BODIPY® PC-A2/DOPC/DOPG/CHOL) was diluted 1:91.4 in activity assay buffer (50 mM Tris/HCl pH 8.5, 100 mM NaCl) using a small-orifice pipette tip under constant vortexing. In the following, this preparation will be referred to as the “substrate solution”.\nIn order to evaluate their inhibitory potential, compounds were dissolved at 10 mM concentration in DMSO and directly spotted into assay plates (Corning, Cat. No. 3576) using acoustic liquid transfer (Labcyte Echo 525). Each compound was spotted at increasing concentrations, ranging from 2 nM to 50 μM (concentration in the final assay volume). 50 μl of PLA2G16 enzyme solution (diluted in activity buffer, supplemented with 5 mM L-Glutathione; Sigma Aldrich) was pre-incubated with compounds for 4 min., followed by addition of 50 μl of substrate solution. Fluorescence was recorded immediately after substrate addition for a total time of 10 min. using a SpectraMax M5 multimode reader (Excitation wavelength: 480 nm, emission wavelength: 530 nm). The relative increase of fluorescence over time is referred to as the enzyme activity. Half-maximal inhibitory concentrations (IC50) were derived by non-linear regression analysis using the drc package in R (R Development. Core Team, 2005).", "units": {"IC50": "nM"}}
{"molecule": "O=C(NC1CC1)C(=O)C1CCC(=O)N1Cc1ccccc1Cl", "note": "(stereo not drawn) [FP 260, 2-{1-[(2-Chlorophenyl)methyl]-5-oxopyrrolidin-2-yl}-N-cyclopropyl-2-oxoacetamide]", "IC50": "< 1000"}
{"molecule": "COc1ccccc1N(C=O)C(C(=O)C(=O)NCc1cccc(Cl)c1)c1ccccc1", "note": "(stereo not drawn) [FP 10, N-[(3-Chlorophenyl)methyl]-3-[N-(2-methoxyphenyl)formamido]-2-oxo-3-phenylpropanamide]", "IC50": "1000 to 10000"}
{"molecule": "CC(C(=O)C(=O)NCc1cccc(Cl)c1)N(C=O)Cc1ccccc1", "note": "(stereo not drawn) [FP 20, 3-(N-Benzylformamido)-N-[(3-chlorophenyl)methyl]-2-oxobutanamide]", "IC50": "< 1000"}
{"molecule": "CC(C(=O)C(=O)NCC1CC1)N(CC1CCOCC1)S(C)(=O)=O", "note": "(stereo not drawn) [FP 223, N-(Cyclopropylmethyl)-3-{N-[(oxan-4-yl)methyl]methanesulfonamido}-2-oxobutanamide]", "IC50": "10000 to 50000"}
{"molecule": "CC(C(=O)C(=O)NCc1ccccc1)N(C=O)C1CCCCC1", "note": "(stereo not drawn) [FP 113, N-Benzyl-3-(N-cyclohexylformamido)-2-oxobutanamide]", "IC50": "< 1000"}
{"molecule": "COc1ccccc1N(C(C)=O)C(C)C(=O)C(=O)NCc1cccc(Cl)c1", "note": "(stereo not drawn) [FP 185, N-[(3-Chlorophenyl)methyl]-3-[N-(2-methoxyphenyl)acetamido]-2-oxobutanamide]", "IC50": "< 1000"}
{"molecule": "COc1ccccc1N(C=O)C(C)C(=O)C(=O)N(C)Cc1cccc(Cl)c1", "note": "(stereo not drawn) [FP 77, N-[(3-Chlorophenyl)methyl]-3-[N-(2-methoxyphenyl)formamido]-N-methyl-2-oxobutanamide]", "IC50": "< 1000"}
{"molecule": "CC(NC(=O)c1ccc(F)cc1)C(=O)C(=O)NCC1CC1", "note": "(stereo not drawn) [FP 153, N-(Cyclopropylmethyl)-3-[(4-fluorophenyl)formamido]-2-oxobutanamide]", "IC50": "1000 to 10000"}
{"molecule": "CC(=O)NCCCOCCCCOCCCNC(=O)C(=O)C1CCC(=O)N1Cc1ccc(Cl)cc1", "note": "(stereo not drawn) [FP 329, 2-{1-[(4-Chlorophenyl)methyl]-5-oxopyrrolidin-2-yl}-N-{3-[4-(3-acetamidopropoxy)butoxy]propyl}-2-oxoacetamide]", "IC50": "< 1000"}
{"molecule": "CC(C(=O)C(=O)NCC1CC1)N(C=O)C1CCC(F)(F)CC1", "note": "(stereo not drawn) [FP 194, N-(Cyclopropylmethyl)-3-[N-(4,4-difluorocyclohexyl)formamido]-2-oxobutanamide]", "IC50": "< 1000"}
{"molecule": "COc1ccccc1N(C=O)C(C)C(=O)C(=O)NCc1ccccc1", "note": "(stereo not drawn) [FP 88, N-Benzyl-3-[N-(2-methoxyphenyl)formamido]-2-oxobutanamide]", "IC50": "< 1000"}
{"molecule": "COc1ccccc1N(C=O)C(C)C(=O)C(=O)NCc1cc(Cl)cc(Cl)c1", "note": "(stereo not drawn) [FP 83, N-[(3,5-Dichlorophenyl)methyl]-3-[N-(2-methoxyphenyl)formamido]-2-oxobutanamide]", "IC50": "< 1000"}
{"molecule": "COc1ccccc1N(C=O)C(C)C(=O)C(=O)NCC1CCOCC1", "note": "(stereo not drawn) [FP 103, 3-[N-(2-Methoxyphenyl)formamido]-m[(oxan-4-yl)methyl]-2-oxobutanamide]", "IC50": "< 1000"}
{"molecule": "COc1ccccc1N(C=O)C(C)C(=O)C(=O)N1CCc2ccc(Cl)cc2C1", "note": "(stereo not drawn) [FP 76, N-[4-(7-Chloro-1,2,3,4-tetrahydroisoquinolin-2-yl)-3,4-dioxobutan-2-yl]-N-(2-methoxy-phenyl)formamide]", "IC50": "10000 to 50000"}
{"molecule": "COc1ccccc1N(C=O)CC(=O)C(=O)NCc1cccc(Cl)c1", "note": "[FP 19, N-[(3-Chlorophenyl)methyl]-3-[N-(2-methoxyphenyl)formamido]-2-oxopropanamide]", "IC50": "< 1000"}
{"molecule": "COc1cccc(N(C=O)C(C)C(=O)C(=O)NCc2cccc(Cl)c2)c1", "note": "(stereo not drawn) [FP 4, N-[(3-Chlorophenyl)methyl]-3-[N-(3-methoxyphenyl)formamido]-2-oxo butanamide]", "IC50": "< 1000"}
{"molecule": "COc1ccccc1N(C=O)C(C)C(=O)C(=O)NCc1ccccc1Cl", "note": "(stereo not drawn) [FP 86, N-[(2-Chlorophenyl)methyl]-3-[N-(2-methoxyphenyl)formamido]-2-oxobutanamide]", "IC50": "< 1000"}
{"molecule": "COc1ccccc1N1C(=O)CC[C@H]1C(=O)C(=O)NCc1cccc(Cl)c1", "note": "[FP 139, N-[(3-Chlorophenyl)methyl]-2-[(2S)-1-(2-methoxyphenyl)-5-oxopyrrolidin-2-yl]-2-oxoacetamide]", "IC50": "1000 to 10000"}
{"molecule": "COc1ccccc1N(C=O)[C@H](C)C(=O)C(=O)NCc1cccc(Cl)c1", "note": "(single isomer, unassigned) [FP 2]", "IC50": "< 1000"}
{"molecule": "CC(C)N(C=O)C(C)C(=O)C(=O)NC(C)(C)c1cccc(Cl)c1", "note": "(stereo not drawn) [FP 26, N-[2-(3-Chlorophenyl)propan-2-yl]-2-oxo-3-[N-(propan-2-yl)formamido]butanamide]", "IC50": "1000 to 10000"}
{"molecule": "Cc1cc(C(=O)N(C)C(C)C(=O)C(=O)NCC2CCCCC2)no1", "note": "(stereo not drawn) [FP 147, N-(Cyclohexylmethyl)-3-[N-methyl-1-(5-methyl-1,2-oxazol-3-yl)formamido]-2-oxobutanamide]", "IC50": "< 1000"}
{"molecule": "CC(C(=O)C(=O)NCC1CCCCC1)N1CCCCC1=O", "note": "(stereo not drawn) [FP 186, N-(Cyclohexylmethyl)-2-oxo-3-(2-oxopiperidin-1-yl)butanamide]", "IC50": "10000 to 50000"}
{"molecule": "CC(C)N(C=O)C(C)C(=O)C(=O)NCc1cccc(Cl)c1", "note": "(stereo not drawn) [FP 21, N-[(3-Chlorophenyl)methyl]-2-oxo-3-[N-(propan-2-yl)formamido]butanamide]", "IC50": "< 1000"}
{"molecule": "COc1ccccc1N1C(=O)CC[C@H]1C(=O)C(=O)NCC1CC1", "note": "[FP 140, N-(cyclopropylmethyl)-2-[(2S)-1-(2-methoxyphenyl)-5-oxopyrrolidin-2-yl]-2-oxoacetamide]", "IC50": "10000 to 50000"}
{"molecule": "CC(C(=O)C(=O)NCc1cccc(Cl)c1)N(C=O)C1CCCCC1", "note": "(stereo not drawn) [FP 17, N-[(3-Chlorophenyl)methyl]-3-(N-cyclohexylformamido)-2-oxobutanamide]", "IC50": "< 1000"}
{"molecule": "CC(C(=O)C(=O)NCc1cccc(Cl)c1)N(C=O)c1ccccc1", "note": "(stereo not drawn) [FP 6, N-[(3-Chlorophenyl)methyl]-2-oxo-3-(N-phenylformamido)butanamide]", "IC50": "< 1000"}
{"molecule": "COc1ccccc1N(C=O)C(C)C(=O)C(=O)NC(C)c1cccc(Cl)c1", "note": "(stereo not drawn) [FP 84, N-[1-(3-Chlorophenyl)ethyl]-3-[N-(2-methoxyphenyl)formamido]-2-oxobutanamide]", "IC50": "< 1000"}
{"molecule": "CC(C(=O)C(=O)NCC1CCCCC1)N(C)C(=O)CN(C)C", "note": "(stereo not drawn) [FP 177, N-(Cyclohexylmethyl)-3-[2-(dimethylamino)-N-methylacetamido]-2-oxobutanamide]", "IC50": "1000 to 10000"}
{"molecule": "COCC(=O)N(C)C(C)C(=O)C(=O)NCC1CCCCC1", "note": "(stereo not drawn) [FP 148, N-(Cyclohexylmethyl)-3-(2-methoxy-N-methylacetamido)-2-oxobutanamide]", "IC50": "< 1000"}
{"molecule": "COc1ccccc1N(C=O)C(C)(C)C(=O)C(=O)NCc1cccc(Cl)c1", "note": "[FP 9, N-[(3-Chlorophenyl)methyl]-3-[N-(2-methoxyphenyl)formamido]-3-methyl-2-oxobutanamide]", "IC50": "1000 to 10000"}
{"molecule": "COc1ccccc1N(C=O)C(C)C(=O)C(=O)NCc1cccc(C)c1", "note": "(stereo not drawn) [FP 87, 3-[N-(2-Methoxyphenyl)formamido]-N-[(3-methylphenyl)methyl]-2-oxo butanamide]", "IC50": "< 1000"}
{"molecule": "C[C@@H](O)CNC(=O)C(=O)C1CCC(=O)N1Cc1ccc(Cl)cc1", "note": "(stereo partly drawn) [FP 259, 2-{1-[(4-Chlorophenyl)methyl]-5-oxopyrrolidin-2-yl}-N-[(2R)-2-hydroxypropyl]-2-oxoacetamide]", "IC50": "< 1000"}
{"molecule": "COc1ccccc1N(C=O)[C@@H](C)C(=O)C(=O)NCc1cccc(Cl)c1", "note": "(single isomer, unassigned) [FP 3]", "IC50": "< 1000"}
